In patent US6384173B1, “Silicone functionalized triclosan” (Siltech LLC, priority 2001, dated 2002):
Like-named read-outs stand apart in the source and are kept apart here.

Legend:
[1] = TGA, 40 to 250 degrees at 20 degree C./minute; value marked (U.S. Pat. No. 6,197,072); cited from earlier work
[2] = Thermal Gravimetric Analysis (weight percent lost); type: physicochemical; details: Perkin-Elmer TGA 7, temperature scanned from 40 to 250 degrees at 20 degree C./minute, at completion of scan
Protocol: Thermal Gravimetric Analysis
Measurements were obtained of the weight percent lost for the samples below using a Perkin-Elmer TGA 7 where the temperature was scanned from 40° to 250° at 20° C./minute. At the completion of the temperature scan for each, the following results were obtained: […]

| Compound | % Weight Loss [1] | % Weight Loss [2] [%] |
| --- | --- | --- |
| Triclosan Acetate | 12 (U.S. Pat. No. 6,197,072) % | – |
| Oc1cc(Cl)ccc1Oc1ccc(Cl)cc1Cl [Triclosan, triclosan] | – | 62 |
